Laboratory results taken from patent US20220331415A1, “IMMUNOACTIVE MICROPARTICLES AND USES THEREOF” (The Regents of the University of California, priority 2019, published 2022).

Tests used:
[1] = biological target: TGF-β receptor; details: TGF-β inhibitors; cited from earlier work
[2] = test system: Treg formation (Foxp3+ T cells); test: Inhibition of Treg formation: Foxp3 expression in naïve T cells co-cultured with microparticles, flow cytometry; type: cell-based; details: same concentration of TGF-β inhibitors, galunisertib compared with SB505124, after 4 days
Description: FIG. 16 further describes TGF-β inhibitors galunisertib (LY2157299) and SB505124 (top). […] Naïve T cells were co-cultured with microparticles and flow cytometry is being used after 4 days to evaluate the intracellular Foxp3 expression.
Thus, in one embodiment, an inhibitor or blocker of TGF-β is included or incorporated into the microparticles of the invention. A TGF-β inhibitor (TGF-βi) such as a TGF-β receptor inhibitor may be used. Non-limiting examples include galinusertib (LY2157299) or SB505124. […] This TGFβ inhibitor used for further studies as described in FIGS. 16-20.
To efficiently stimulate the proliferation of cytotoxic T cells, the microparticles of the invention should suppress formation of regulatory T cells (Tregs) from CD4+ cells attracted to the microparticles. Sustained presence of TGF-β inhibitors can suppress Tregs formation. FIG. 15 and FIG. 16 depict two TGF-β inhibitors used here to show the suppression effect. […] Incorporation of β-cyclodextrin was used to increase the affinity and loading of Galunisertib to microparticles (FIG. 17). β-cyclodextrin was conjugated to Alginate or Alginate-Heparin polymers.

[3] = compared to IL-2, cited from earlier work

| Molecule | IC50 [1] [nM] | Treg suppression (Foxp3 expression, number of Foxp3+ cells) [2] | Treg suppression (Foxp3 expression, number of Foxp3+ cells) ([2]; listed as Galunisertib) | expansion of cytotoxic T cells [3] | toxicity ([3]; lower Treg expansion, reduced pulmonary edema) | antitumor responses ([3]; in vivo) |
| --- | --- | --- | --- | --- | --- | --- |
| Cc1cccc(-c2[nH]c(C(C)(C)C)nc2-c2ccc3c(c2)OCO3)n1 [SB505124] | 129 |  |  |  |  |  |
| Cc1cccc(-c2nn3c(c2-c2ccnc4ccc(C(N)=O)cc24)CCC3)n1 [galunisertib] | 56 | stronger Treg suppression | higher degree of Tregs suppression |  |  |  |
| IL-2 superkine: artificial variant of IL-2 containing mutations L80F/R81D/L85V/I86V/I92F (SEQ ID NO: 3) (protein) MGEFAPTSSSTKKTQLQLEHLLLDLQMILNGINNYKNPKLTRMLTFKFYMPKKATELKHLQCLEEELKPLEEVLNLAQSKNFHFDPRDVVSNINVFVLELKGSETTFMCEYADETATIVEFLNRWITFCQSIISTLTH |  |  |  | superior expansion | proportionally less toxicity | improved antitumor responses |
